One series deals with BT474 cells. Briefly: Cell binding assay and specific binding. Also noted: species or system human. The settings on record: at 60 min.
For a further series, the system named is BT474 xenografts. Nature of the series: Tissue distribution in mice bearing BT474 xenografts. It is filed as in vivo, mouse. The settings on record: BT474 xenograft mice, n = 5.
The mark [1] stands for this setting: 100 ± 20 μCi i.v., after PET/CT at 1 h.

Molecules are shown by their SMILES.

Take `[68Ga+3].[Cl-].[Cl-].[Cl-]` [[^68Ga]GaCl3]: the “specific BT474 cell binding” value with BT474 cells amounted to 18.8 ± 2.5%. Moreover, in the series with BT474 xenografts (setting [1]), the “tissue distribution, contralateral muscle” value came out at 1.2 ± 0.4 %ID/g; the “tissue distribution, liver” value worked out at 4.3 ± 1.3 %ID/g; the “tissue distribution, tumor uptake” value is listed as 2.2 ± 1.7 %ID/g. In the series on BT474 xenografts (100 ± 20 μCi i.v., at 1 h), the “tissue distribution, lungs” value is reported as 4.2 ± 2.6 %ID/g. Besides, the “T/M ratio, tissue distribution” value in the series on BT474 xenografts (non-blocked, after PET/CT at 1 h) came to 1.7 ± 0.8.
